What was measured:
[1] = tested on: late watergrass; experiment: Test Example 1: herbicidal activity, application before weed generation under submerged conditions (Table 16, symbol A); assay type: in vivo, late watergrass (Echinochloa oryzicola); conditions: 320 g/ha applied herbicide
How it was run: (§1)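 Submerged Wagner pots (alluvial soil, 4 cm water) sown with weed seeds and planted with 2.5-leaf rice seedlings; emulsifiable concentrate diluted in water applied to water surface on sowing day. Held in greenhouse at 25-30 °C; injury scored 0-5 by herbicidal rate after three weeks.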

[2] = tested on: Japanese bulrush; experiment: Test Example 1: herbicidal activity, application before weed generation under submerged conditions (Table 16, symbol B); assay type: in vivo, Japanese bulrush (Schoenoplectus juncoides); conditions: 320 g/ha applied herbicide
How it was run: as §1

[3] = tested on: oval-leafed pondweed; experiment: Test Example 1: herbicidal activity, application before weed generation under submerged conditions (Table 16, symbol C); assay type: in vivo, oval-leafed pondweed (Monochoria vaginalis); conditions: 320 g/ha applied herbicide
How it was run: as §1

[4] = tested on: barnyard grass; experiment: Test Example 3: herbicidal effect by foliage application, Wagner pot (Table 18, symbol H); assay type: in vivo, barnyard grass (Echinochloa crus-galli); conditions: 320 g/ha
How it was run: (§2)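 Plants were sown in alluvial soil held under 0.1–0.5 cm standing water and grown 14 days in a greenhouse at 25–30 °C. An emulsifiable formulation, water-diluted to the set dose, was then sprayed onto the foliage, and effects were scored three weeks later using previously defined criteria.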

[5] = tested on: Chinese sprangletop; experiment: Test Example 3: herbicidal effect by foliage application, Wagner pot (Table 18, symbol D); assay type: in vivo, chinese sprangletop (Leptochloa chinensis); conditions: 320 g/ha
How it was run: as §2

[6] = tested on: rice flat sedge; experiment: Test Example 3: herbicidal effect by foliage application, Wagner pot (Table 18, symbol E); assay type: in vivo, rice flat sedge (Cyperus iria); conditions: 320 g/ha
How it was run: as §2

[7] = tested on: southern crabgrass; experiment: Test Example 4: herbicidal effect by soil treatment (Table 19, symbol F); assay type: in vivo, southern crabgrass (Digitaria ciliaris); conditions: amount of applied herbicide 320 g/ha
How it was run: (§3)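 Soil-surface application: an emulsion agent diluted with water to the predetermined dose is sprayed uniformly over seeds lying under roughly 1.5 cm of sterilized diluvial soil. Boxes stay in a greenhouse at 25° C. to 30° C. Three weeks later, each species is graded on previously defined criteria.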

[8] = tested on: green foxtail; experiment: Test Example 4: herbicidal effect by soil treatment (Table 19, symbol G); assay type: in vivo, green foxtail (Setaria viridis); conditions: amount of applied herbicide 320 g/ha
How it was run: as §3

[9] = tested on: barnyard grass; experiment: Test Example 4: herbicidal effect by soil treatment (Table 19, symbol H); assay type: in vivo, barnyard grass (Echinochloa crus-galli); conditions: amount of applied herbicide 320 g/ha
How it was run: as §3

[10] = tested on: wild oat; experiment: Test Example 4: herbicidal effect by soil treatment (Table 19, symbol I); assay type: in vivo, wild oat (Avena fatua); conditions: amount of applied herbicide 320 g/ha
How it was run: as §3

[11] = tested on: blackgrass; experiment: Test Example 4: herbicidal effect by soil treatment (Table 19, symbol J); assay type: in vivo, blackgrass (Alopecurus myosuroides); conditions: amount of applied herbicide 320 g/ha
How it was run: as §3

[12] = tested on: Italian ryegrass; experiment: Test Example 4: herbicidal effect by soil treatment (Table 19, symbol K); assay type: in vivo, Italian ryegrass (Lolium multiflorum); conditions: amount of applied herbicide 320 g/ha
How it was run: as §3

[13] = tested on: windgrass; experiment: Test Example 4: herbicidal effect by soil treatment (Table 19, symbol L); assay type: in vivo, windgrass (Apera spica-venti); conditions: amount of applied herbicide 320 g/ha
How it was run: as §3

[14] = tested on: velvetleaf; experiment: Test Example 4: herbicidal effect by soil treatment (Table 19, symbol M); assay type: in vivo, velvetleaf (Abutilon theophrasti); conditions: amount of applied herbicide 320 g/ha
How it was run: as §3

[15] = tested on: redroot pigweed; experiment: Test Example 4: herbicidal effect by soil treatment (Table 19, symbol N); assay type: in vivo, redroot pigweed (Amaranthus retroflexus); conditions: amount of applied herbicide 320 g/ha
How it was run: as §3

[16] = tested on: lambsquarters; experiment: Test Example 4: herbicidal effect by soil treatment (Table 19, symbol O); assay type: in vivo, lambsquarters (Chenopodium album); conditions: amount of applied herbicide 320 g/ha
How it was run: as §3

[17] = tested on: chickweed; experiment: Test Example 4: herbicidal effect by soil treatment (Table 19, symbol P); assay type: in vivo, common chickweed (Stellaria media); conditions: amount of applied herbicide 320 g/ha
How it was run: as §3

[18] = tested on: persian speedwell; experiment: Test Example 4: herbicidal effect by soil treatment (Table 19, symbol R); assay type: in vivo, Persian speedwell (Veronica persica); conditions: amount of applied herbicide 320 g/ha
How it was run: as §3

[19] = tested on: southern crabgrass; experiment: Test Example 5: herbicidal effect by foliage application, plastic box (Table 20, symbol F); assay type: in vivo, southern crabgrass (Digitaria ciliaris); conditions: foliage application, 320 g/ha, three weeks after application
How it was run: (§4)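 Sow seeds spot-wise in sterilized diluvial soil; cover with ~1.5 cm soil. Grow 14 days in greenhouse, 25° C. to 30° C. Spray foliage with emulsion diluted to predetermined amount. Rate effect after 3 weeks.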

[20] = tested on: green foxtail; experiment: Test Example 5: herbicidal effect by foliage application, plastic box (Table 20, symbol G); assay type: in vivo, green foxtail (Setaria viridis); conditions: foliage application, 320 g/ha, three weeks after application
How it was run: as §4

[21] = tested on: barnyard grass; experiment: Test Example 5: herbicidal effect by foliage application, plastic box (Table 20, symbol H); assay type: in vivo, barnyard grass (Echinochloa crus-galli); conditions: foliage application, 320 g/ha, three weeks after application
How it was run: as §4

[22] = tested on: wild oat; experiment: Test Example 5: herbicidal effect by foliage application, plastic box (Table 20, symbol I); assay type: in vivo, wild oat (Avena fatua); conditions: foliage application, 320 g/ha, three weeks after application
How it was run: as §4

[23] = tested on: blackgrass; experiment: Test Example 5: herbicidal effect by foliage application, plastic box (Table 20, symbol J); assay type: in vivo, blackgrass (Alopecurus myosuroides); conditions: foliage application, 320 g/ha, three weeks after application
How it was run: as §4

[24] = tested on: Italian ryegrass; experiment: Test Example 5: herbicidal effect by foliage application, plastic box (Table 20, symbol K); assay type: in vivo, Italian ryegrass (Lolium multiflorum); conditions: foliage application, 320 g/ha, three weeks after application
How it was run: as §4

[25] = tested on: windgrass; experiment: Test Example 5: herbicidal effect by foliage application, plastic box (Table 20, symbol L); assay type: in vivo, windgrass (Apera spica-venti); conditions: foliage application, 320 g/ha, three weeks after application
How it was run: as §4

[26] = tested on: velvetleaf; experiment: Test Example 5: herbicidal effect by foliage application, plastic box (Table 20, symbol M); assay type: in vivo, velvetleaf (Abutilon theophrasti); conditions: foliage application, 320 g/ha, three weeks after application
How it was run: as §4

[27] = tested on: redroot pigweed; experiment: Test Example 5: herbicidal effect by foliage application, plastic box (Table 20, symbol N); assay type: in vivo, redroot pigweed (Amaranthus retroflexus); conditions: foliage application, 320 g/ha, three weeks after application
How it was run: as §4

[28] = tested on: lambsquarters; experiment: Test Example 5: herbicidal effect by foliage application, plastic box (Table 20, symbol O); assay type: in vivo, lambsquarters (Chenopodium album); conditions: foliage application, 320 g/ha, three weeks after application
How it was run: as §4

[29] = tested on: chickweed; experiment: Test Example 5: herbicidal effect by foliage application, plastic box (Table 20, symbol P); assay type: in vivo, common chickweed (Stellaria media); conditions: foliage application, 320 g/ha, three weeks after application
How it was run: as §4

[30] = tested on: persian speedwell; experiment: Test Example 5: herbicidal effect by foliage application, plastic box (Table 20, symbol R); assay type: in vivo, Persian speedwell (Veronica persica); conditions: foliage application, 320 g/ha, three weeks after application
How it was run: as §4

CCCC(=O)Oc1c(C)nn(C)c(=O)c1-c1c(-c2cc(F)ccc2OC)sc2ccccc12 [1-059]
Herbicidal effect on A: late watergrass (grade 0-5) [1]: 3 (Herbicidal rate of 40% or more and less than 70%)
Herbicidal effect on B: Japanese bulrush (grade 0-5) [2]: 2 (Herbicidal rate of 20% or more and less than 40%)
Herbicidal effect on C: oval-leafed pondweed (grade 0-5) [3]: 1 (Herbicidal rate of 5% or more and less than 20%)
herbicidal effect on H (barnyard grass), rating 0-5 [4]: 3 (Herbicidal rate of 40% or more and less than 70%)
herbicidal effect on D (Chinese sprangletop), rating 0-5 [5]: 1 (Herbicidal rate of 5% or more and less than 20%)
herbicidal effect on E (rice flat sedge), rating 0-5 [6]: 5 (Herbicidal rate of 90% or more (almost completely withered))
herbicidal effect rating, F: southern crabgrass [7]: 0 (Herbicidal rate of 5% or less (almost no effect))
herbicidal effect rating, G: green foxtail [8]: 3 (Herbicidal rate of 40% or more and less than 70%)
herbicidal effect rating, H: barnyard grass [9]: 3 (Herbicidal rate of 40% or more and less than 70%)
herbicidal effect rating, I: wild oat [10]: 0 (Herbicidal rate of 5% or less (almost no effect))
herbicidal effect rating, J: blackgrass [11]: 3 (Herbicidal rate of 40% or more and less than 70%)
herbicidal effect rating, K: Italian ryegrass [12]: 1 (Herbicidal rate of 5% or more and less than 20%)
herbicidal effect rating, L: windgrass [13]: 3 (Herbicidal rate of 40% or more and less than 70%)
herbicidal effect rating, M: velvetleaf [14]: 0 (Herbicidal rate of 5% or less (almost no effect))
herbicidal effect rating, N: redroot pigweed [15]: 0 (Herbicidal rate of 5% or less (almost no effect))
herbicidal effect rating, O: lambsquarters [16]: 3 (Herbicidal rate of 40% or more and less than 70%)
herbicidal effect rating, P: chickweed [17]: 0 (Herbicidal rate of 5% or less (almost no effect))
herbicidal effect rating, R: persian speedwell [18]: 0 (Herbicidal rate of 5% or less (almost no effect))
herbicidal effect grade, F: southern crabgrass [19]: 0 (Herbicidal rate of 5% or less (almost no effect))
herbicidal effect grade, G: green foxtail [20]: 2 (Herbicidal rate of 20% or more and less than 40%)
herbicidal effect grade, H: barnyard grass [21]: 3 (Herbicidal rate of 40% or more and less than 70%)
herbicidal effect grade, I: wild oat [22]: 2 (Herbicidal rate of 20% or more and less than 40%)
herbicidal effect grade, J: blackgrass [23]: 3 (Herbicidal rate of 40% or more and less than 70%)
herbicidal effect grade, K: Italian ryegrass [24]: 2 (Herbicidal rate of 20% or more and less than 40%)
herbicidal effect grade, L: windgrass [25]: 4 (Herbicidal rate of 70% or more and less than 90%)
herbicidal effect grade, M: velvetleaf [26]: 2 (Herbicidal rate of 20% or more and less than 40%)
herbicidal effect grade, N: redroot pigweed [27]: 3 (Herbicidal rate of 40% or more and less than 70%)
herbicidal effect grade, O: lambsquarters [28]: 3 (Herbicidal rate of 40% or more and less than 70%)
herbicidal effect grade, P: chickweed [29]: 5 (Herbicidal rate of 90% or more (almost completely withered))
herbicidal effect grade, R: persian speedwell [30]: 2 (Herbicidal rate of 20% or more and less than 40%)
